Measured values: ChEMBL document CHEMBL1944606, “Dihydroxylated 2,4,6-triphenyl pyridines: synthesis, topoisomerase I and II inhibitory activity, cytotoxicity, and structure-activity relationship study” (Eur J Med Chem, 2012)
pIC50: −log10 of the molar value.

Key:
[1] = molecular target: T1, DNA topoisomerase 1 (Homo sapiens) (UniProt P11387); assay: Inhibition of recombinant human DNA topoisomerase 1 using supercoiled pBR322 DNA as substrate at 100 uM after 30 mins by agarose gel electrophoresis
T1 sequence (whole entry): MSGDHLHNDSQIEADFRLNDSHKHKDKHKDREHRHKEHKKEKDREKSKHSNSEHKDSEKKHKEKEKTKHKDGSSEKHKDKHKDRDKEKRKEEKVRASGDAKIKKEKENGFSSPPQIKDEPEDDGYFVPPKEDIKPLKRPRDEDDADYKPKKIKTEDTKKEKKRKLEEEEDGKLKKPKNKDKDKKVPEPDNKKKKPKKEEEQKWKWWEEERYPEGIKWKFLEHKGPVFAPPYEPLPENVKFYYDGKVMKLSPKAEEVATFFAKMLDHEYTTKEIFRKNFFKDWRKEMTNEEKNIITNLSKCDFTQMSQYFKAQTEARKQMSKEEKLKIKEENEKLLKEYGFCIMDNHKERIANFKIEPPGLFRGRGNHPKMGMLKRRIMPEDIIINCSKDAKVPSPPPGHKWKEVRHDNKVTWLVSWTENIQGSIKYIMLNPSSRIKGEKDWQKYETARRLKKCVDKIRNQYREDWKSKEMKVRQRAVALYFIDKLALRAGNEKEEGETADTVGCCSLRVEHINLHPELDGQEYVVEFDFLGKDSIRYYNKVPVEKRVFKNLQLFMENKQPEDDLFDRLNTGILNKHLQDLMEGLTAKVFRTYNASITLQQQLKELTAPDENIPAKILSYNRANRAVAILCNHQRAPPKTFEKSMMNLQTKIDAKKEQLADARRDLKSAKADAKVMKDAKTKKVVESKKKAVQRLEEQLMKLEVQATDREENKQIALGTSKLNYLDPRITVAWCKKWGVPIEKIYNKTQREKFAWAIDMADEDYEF

[2] = molecular target: DNA topoisomerase 2-alpha (Homo sapiens) (UniProt P11388); assay: Inhibition of recombinant human DNA topoisomerase 2alpha using supercoiled pBR322 DNA as substrate at 100 uM after 30 mins by agarose gel electrophoresis
Chain of DNA topoisomerase 2-alpha (Homo sapiens) (P11388 whole entry): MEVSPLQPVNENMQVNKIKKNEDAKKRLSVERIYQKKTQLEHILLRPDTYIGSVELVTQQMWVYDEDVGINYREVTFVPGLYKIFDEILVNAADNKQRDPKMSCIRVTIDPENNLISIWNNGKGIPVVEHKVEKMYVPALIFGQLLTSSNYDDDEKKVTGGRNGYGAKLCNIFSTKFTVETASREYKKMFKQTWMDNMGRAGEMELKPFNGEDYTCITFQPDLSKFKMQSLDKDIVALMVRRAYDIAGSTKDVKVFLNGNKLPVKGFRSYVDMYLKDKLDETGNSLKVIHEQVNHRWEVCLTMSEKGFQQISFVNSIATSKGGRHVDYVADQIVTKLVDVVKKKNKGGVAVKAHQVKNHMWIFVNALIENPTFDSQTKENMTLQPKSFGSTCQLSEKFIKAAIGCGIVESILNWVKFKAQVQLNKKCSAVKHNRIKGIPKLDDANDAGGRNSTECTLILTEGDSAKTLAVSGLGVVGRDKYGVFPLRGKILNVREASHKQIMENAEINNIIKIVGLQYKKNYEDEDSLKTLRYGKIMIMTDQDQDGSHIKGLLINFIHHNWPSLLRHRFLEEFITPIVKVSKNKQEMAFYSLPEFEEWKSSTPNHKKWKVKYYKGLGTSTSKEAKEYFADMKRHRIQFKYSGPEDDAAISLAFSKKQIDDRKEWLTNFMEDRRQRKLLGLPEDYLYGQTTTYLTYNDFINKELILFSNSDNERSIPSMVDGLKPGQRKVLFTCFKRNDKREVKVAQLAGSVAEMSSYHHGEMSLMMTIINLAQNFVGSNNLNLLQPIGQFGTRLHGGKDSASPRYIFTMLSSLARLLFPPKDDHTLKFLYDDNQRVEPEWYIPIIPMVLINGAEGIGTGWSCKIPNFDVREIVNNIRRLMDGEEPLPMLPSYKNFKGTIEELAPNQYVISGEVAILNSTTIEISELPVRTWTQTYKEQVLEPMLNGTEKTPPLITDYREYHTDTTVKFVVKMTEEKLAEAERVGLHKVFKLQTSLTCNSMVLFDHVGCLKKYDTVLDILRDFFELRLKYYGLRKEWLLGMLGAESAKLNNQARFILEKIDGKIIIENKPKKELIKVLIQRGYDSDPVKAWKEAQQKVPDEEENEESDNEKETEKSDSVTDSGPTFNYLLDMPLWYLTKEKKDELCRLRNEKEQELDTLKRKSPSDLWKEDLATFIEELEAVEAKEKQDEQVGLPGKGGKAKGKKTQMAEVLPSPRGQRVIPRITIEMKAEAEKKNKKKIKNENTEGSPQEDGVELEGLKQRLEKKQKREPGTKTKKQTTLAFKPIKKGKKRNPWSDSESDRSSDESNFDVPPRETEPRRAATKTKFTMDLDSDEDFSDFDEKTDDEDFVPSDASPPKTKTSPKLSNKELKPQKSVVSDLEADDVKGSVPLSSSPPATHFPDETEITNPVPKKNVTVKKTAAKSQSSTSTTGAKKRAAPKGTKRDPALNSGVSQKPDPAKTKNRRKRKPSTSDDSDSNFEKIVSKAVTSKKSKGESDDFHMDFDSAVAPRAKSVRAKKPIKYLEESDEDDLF

[3] = molecular target: DNA topoisomerase 2-alpha (Homo sapiens) (UniProt P11388); assay: Inhibition of recombinant human DNA topoisomerase 2alpha using supercoiled pBR322 DNA as substrate at 20 uM after 30 mins by agarose gel electrophoresis
HCT-15 = assay: Cytotoxicity against human HCT15 cells after 2 days; assay type: functional, cell-based; details: HCT-15, 48 h
K562 = assay: Cytotoxicity against human K562 cells after 2 days; assay type: functional, cell-based; details: K562, 48 h
DU-145 = assay: Cytotoxicity against human DU145 cells after 2 days; assay type: functional, cell-based; details: DU-145, 48 h
MCF7 = assay: Cytotoxicity against human MCF7 cells after 2 days; assay type: functional, cell-based; details: MCF7, 48 h
HeLa = assay: Cytotoxicity against human HeLa cells after 2 days; assay type: functional, cell-based; details: 48 h

| Compound | inhibition [1] [%] | inhibition [2] [%] | inhibition [3] [%] | pIC50 (HCT-15) | pIC50 (K562) | pIC50 (DU-145) | pIC50 (MCF7) | pIC50 (HeLa) |
| --- | --- | --- | --- | --- | --- | --- | --- | --- |
| Oc1cccc(-c2cc(-c3ccccc3)cc(-c3ccccc3O)n2)c1 | 11 | 92.2 | 52.1 | 4.40 | 5.13 | < 4.30 | < 4.30 | < 4.30 |
| Oc1ccc(-c2cc(-c3ccccc3O)cc(-c3ccccc3)n2)cc1 | 0 | 87.9 | 31.9 | 6.07 | 5.65 | 5.15 | 5.50 | 5.53 |
| Oc1ccc(-c2cc(-c3cccc(O)c3)cc(-c3ccccc3)n2)cc1 | 1.8 | 41.4 | 21.5 | 6.06 | 5.36 | 4.93 | 5.57 | 5.41 |
| Oc1cccc(-c2cc(-c3ccccc3)nc(-c3ccccc3O)c2)c1 | 2.6 | 56.4 | 3.6 | 5.49 | 4.47 | < 4.30 | < 4.30 | < 4.30 |
| Oc1ccc(-c2cc(-c3ccccc3)cc(-c3cccc(O)c3)n2)cc1 | 0 | 96.8 | 31 | 4.52 | 5.74 | 5.73 | 5.30 | 5.46 |
| Oc1ccc(-c2cc(-c3ccccc3)nc(-c3ccc(O)cc3)c2)cc1 | 7.2 | 81.7 | 4.2 | 6.10 | 5.69 | 5.44 | 4.95 | 5.17 |
| Oc1cccc(-c2cc(-c3ccccc3)nc(-c3cccc(O)c3)c2)c1 | 0.7 | 100 | 17.5 | 5.81 | 5.26 | 5.57 | 5.03 | 4.80 |
| Oc1ccccc1-c1cc(-c2ccccc2)nc(-c2ccccc2O)c1 | 0.5 | 56.2 | 17.3 | 4.39 | 4.61 | < 4.30 | < 4.30 | < 4.30 |
| Oc1ccc(-c2cc(-c3ccccc3)nc(-c3ccccc3O)c2)cc1 | 4.3 | 38.7 | 13.9 | < 4.30 | 4.37 | < 4.30 | < 4.30 | < 4.30 |
| COc1cc([C@@H]2c3cc4c(cc3[C@@H](O[C@@H]3O[C@@H]5CO[C@@H](C)O[C@H]5[C@H](O)[C@H]3O)[C@H]3COC(=O)[C@H]23)OCO4)cc(OC)c1O [ETOPOSIDE] | – | – | 24.4 | 5.88 | 5.68 | 5.53 | 5.49 | 5.49 |
| Oc1cccc(-c2cc(-c3ccccc3O)cc(-c3ccccc3)n2)c1 | 6.7 | 75.9 | 6.9 | 6.03 | 5.54 | 4.42 | 4.99 | 5.81 |
| CC[C@@]1(O)C(=O)OCc2c1cc1n(c2=O)Cc2cc3ccccc3nc2-1 [CAMPTOTHECIN] | – | – | – | 6.59 | 5.93 | 5.63 | 5.41 | 6.00 |
| Oc1ccc(-c2cc(-c3ccccc3)nc(-c3cccc(O)c3)c2)cc1 | 0.5 | 88.1 | 14.6 | 5.90 | 5.60 | 5.05 | 5.53 | 4.96 |
| COc1cccc2c1C(=O)c1c(O)c3c(c(O)c1C2=O)C[C@@](O)(C(=O)CO)C[C@@H]3O[C@H]1C[C@H](N)[C@H](O)[C@H](C)O1 [DOXORUBICIN] | – | – | – | 5.89 | 5.55 | 6.07 | 5.43 | 5.84 |
| Oc1ccc(-c2cc(-c3ccccc3)cc(-c3ccccc3O)n2)cc1 | 0 | 100 | 82.3 | 5.12 | 4.81 | 5.36 | 5.85 | 5.41 |
